Source: PubChem BioAssay (NCI)
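Step 1: Grow cells in 96-well plates. Step 2: Expose to compound for 48 hours at 5 concentrations. Step 3: Interpolate endpoints linearly; if unreached, use highest concentration. TGI marks complete inhibition of growth.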

Experiments:
Test in all cases: inhibition of tumour cell growth, NCI panel, 48 h
786-0 renal = tested on: 786-0 renal
A498 renal = tested on: A498 renal
A549 NSCLC = tested on: A549 NSCLC
ACHN renal = tested on: ACHN renal
CAKI-1 renal = tested on: CAKI-1 renal
CCRF-CEM leukemia = tested on: CCRF-CEM leukemia
COLO 205 colon = tested on: COLO 205 colon
DLD-1 colon = tested on: DLD-1 colon
DMS 114 small cell lung = tested on: DMS 114 small cell lung
DMS 273 small cell lung = tested on: DMS 273 small cell lung
EKVX NSCLC = tested on: EKVX NSCLC
HCC-2998 colon = tested on: HCC-2998 colon
HCT-116 colon = tested on: HCT-116 colon
HCT-15 colon = tested on: HCT-15 colon
HL-60(TB) leukemia = tested on: HL-60(TB) leukemia
HOP-18 NSCLC = tested on: HOP-18 NSCLC
HOP-62 NSCLC = tested on: HOP-62 NSCLC
HOP-92 NSCLC = tested on: HOP-92 NSCLC
HT29 colon = tested on: HT29 colon
IGROV1 ovarian = tested on: IGROV1 ovarian
K-562 leukemia = tested on: K-562 leukemia
KM12 colon = tested on: KM12 colon
KM20L2 colon = tested on: KM20L2 colon
LOX IMVI melanoma = tested on: LOX IMVI melanoma
LXFL 529 NSCLC = tested on: LXFL 529 NSCLC
M14 melanoma = tested on: M14 melanoma
M19-MEL melanoma = tested on: M19-MEL melanoma
MALME-3M melanoma = tested on: MALME-3M melanoma
MOLT-4 leukemia = tested on: MOLT-4 leukemia
NCI-H226 lung = tested on: NCI-H226 lung
NCI-H23 lung = tested on: NCI-H23 lung
NCI-H460 lung = tested on: NCI-H460 lung
NCI-H522 lung = tested on: NCI-H522 lung
OVCAR-3 ovarian = tested on: OVCAR-3 ovarian
OVCAR-4 ovarian = tested on: OVCAR-4 ovarian
OVCAR-5 ovarian = tested on: OVCAR-5 ovarian
OVCAR-8 ovarian = tested on: OVCAR-8 ovarian
RPMI-8226 leukemia = tested on: RPMI-8226 leukemia
RXF 393 renal = tested on: RXF 393 renal
SF-268 CNS = tested on: SF-268 CNS
SF-295 CNS = tested on: SF-295 CNS
SF-539 CNS = tested on: SF-539 CNS
SK-MEL-2 melanoma = tested on: SK-MEL-2 melanoma
SK-MEL-5 melanoma = tested on: SK-MEL-5 melanoma
SK-OV-3 ovarian = tested on: SK-OV-3 ovarian
SN12C renal = tested on: SN12C renal
SNB-19 CNS = tested on: SNB-19 CNS
SNB-75 CNS = tested on: SNB-75 CNS
SNB-78 CNS = tested on: SNB-78 CNS
SR leukemia = tested on: SR leukemia
SW-620 colon = tested on: SW-620 colon
TK-10 renal = tested on: TK-10 renal
U251 CNS = tested on: U251 CNS
UACC-257 melanoma = tested on: UACC-257 melanoma
UACC-62 melanoma = tested on: UACC-62 melanoma
UO-31 renal = tested on: UO-31 renal
XF 498 CNS = tested on: XF 498 CNS

Measured: TGI

CC(C)(C)OC(=O)C1=C(O)C(C(=O)OC(C)(C)C)C23CCCCC12C(C(=O)OC(C)(C)C)C(O)=C3C(=O)OC(C)(C)C (configuration not stated)
> 100 µM: 786-0 renal | A498 renal | A549 NSCLC | ACHN renal | CAKI-1 renal | CCRF-CEM leukemia | COLO 205 colon | DLD-1 colon | DMS 114 small cell lung | DMS 273 small cell lung | EKVX NSCLC | HCC-2998 colon | HCT-116 colon | HCT-15 colon | HL-60(TB) leukemia | HOP-18 NSCLC | HOP-62 NSCLC | HOP-92 NSCLC | HT29 colon | IGROV1 ovarian | K-562 leukemia | KM12 colon | KM20L2 colon | LOX IMVI melanoma | LXFL 529 NSCLC | M14 melanoma | M19-MEL melanoma | MALME-3M melanoma | MOLT-4 leukemia | NCI-H226 lung | NCI-H23 lung | NCI-H460 lung | NCI-H522 lung | OVCAR-3 ovarian | OVCAR-4 ovarian | OVCAR-5 ovarian | OVCAR-8 ovarian | RPMI-8226 leukemia | RXF 393 renal | SF-268 CNS | SF-295 CNS | SF-539 CNS | SK-MEL-2 melanoma | SK-MEL-5 melanoma | SK-OV-3 ovarian | SN12C renal | SNB-19 CNS | SNB-75 CNS | SNB-78 CNS | SR leukemia | SW-620 colon | TK-10 renal | U251 CNS | UACC-257 melanoma | UACC-62 melanoma | UO-31 renal | XF 498 CNS
